Tests used:
bedstraw = assay: Test B pre/postemergence bedstraw; type: in vivo, Galium aparine; settings: Preemergence
Outline: (§1)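 Test chemicals in a non-phytotoxic solvent mixture with surfactant were sprayed preemergence onto planted seeds and postemergence onto plants 2 to 18 cm tall (1- to 4-leaf stage). After twelve to sixteen days in a greenhouse, injury was visually rated against untreated controls from 0 (no effect) to 10 (complete control).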

blackgrass = assay: Test B pre/postemergence blackgrass; type: in vivo, Alopecurus myosuroides
Outline: as §1

surinam grass = assay: Test B pre/postemergence surinam grass; type: in vivo, Brachiaria decumbens
Outline: as §1

cocklebur = assay: Test B pre/postemergence cocklebur; type: in vivo, Xanthium strumarium
Outline: as §1

corn = assay: Test B pre/postemergence corn; type: in vivo, Zea mays
Outline: as §1

crabgrass = assay: Test B pre/postemergence crabgrass; type: in vivo, Digitaria sanguinalis
Outline: as §1

giant foxtail = assay: Test B pre/postemergence giant foxtail; type: in vivo, Setaria faberii
Outline: as §1

morningglory = assay: Test B pre/postemergence morningglory; type: in vivo, Ipomoea hederacea
Outline: as §1

pigweed = assay: Test B pre/postemergence pigweed; type: in vivo, Amaranthus retroflexus
Outline: as §1

rape = assay: Test B pre/postemergence rape; type: in vivo, Brassica napus
Outline: as §1

soybean = assay: Test B pre/postemergence soybean; type: in vivo, Glycine max
Outline: as §1

sugar beet = assay: Test B pre/postemergence sugar beet; type: in vivo, Beta vulgaris
Outline: as §1

velvetleaf = assay: Test B pre/postemergence velvetleaf; type: in vivo, Abutilon theophrasti
Outline: as §1

wheat = assay: Test B pre/postemergence wheat; type: in vivo, Triticum aestivum
Outline: as §1

wild oat = assay: Test B pre/postemergence wild oat; type: in vivo, Avena fatua
Outline: as §1

purple nutsedge = assay: Test B pre/postemergence purple nutsedge; type: in vivo, Cyperus rotundus
Outline: as §1

rice = assay: Test B flood test rice; type: in vivo, Oryza sativa
Outline: (§2)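 Flood test on plants grown to the 2-leaf stage; treated plants kept in greenhouse twelve to sixteen days, then visually rated against controls on a 0 (no effect) to 10 (complete control) scale.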

smallflower flatsedge = assay: Test B flood test smallflower flatsedge; type: in vivo, Cyperus difformis
Outline: as §2

duck salad = assay: Test B flood test duck salad; type: in vivo, Heteranthera limosa
Outline: as §2

bamyardgrass = assay: Test B flood test barnyardgrass; type: in vivo, Echinochloa crus-galli
Outline: as §2

[1] = Postemergence, Rate 62 g/ha, scale 0 to 10, 0 is no effect, 10 is complete control
[2] = Postemergence, Rate 125 g/ha, scale of 0 to 10 where 0 is no effect and 10 is complete control
[3] = Postemergence, Rate 500 g/ha, scale 0 (no effect) to 10 (complete control)
[4] = Preemergence, Rate 250 g/ha, scale 0 (no effect) to 10 (complete control)
[5] = Rate 62 g/ha, Preemergence, scale 0 to 10
[6] = Rate 250 g/ha, Postemergence, scale 0 to 10, 0 is no effect, 10 is complete control
[7] = Rate 500 g/ha, Preemergence, scale 0 to 10 (0 no effect, 10 complete control)
[8] = Rate 125 g/ha, Preemergence, scale 0 to 10 (0 no effect, 10 complete control)
[9] = Pre-emergence, Rate 62 g/ha, scale 0 to 10, 0 is no effect, 10 is complete control
[10] = Rate 125 g/ha, Pre-emergence section (flood test species), scale 0 to 10, 0 no effect, 10 complete control
[11] = Rate 250 g/ha, Pre-emergence (flood test species), scale 0 to 10, 0 is no effect, 10 is complete control
[12] = Rate 500 g/ha, Pre-emergence section of Table B, 0 to 10 scale (0 no effect, 10 complete control)

## CC(C)N(C(=O)n1oc(=O)n(CC2=NOCCO2)c1=O)c1ccc(F)cc1 [Compound 765]
bedstraw; Rate 250 g/ha, scale 0 (no effect) to 10 (complete control)
  Bedstraw plant response rating: 2
bedstraw; Rate 62 g/ha, scale 0 to 10
  Bedstraw plant response rating: 0
bedstraw; Rate 500 g/ha, scale 0 to 10 (0 no effect, 10 complete control)
  Bedstraw plant response rating: 8
blackgrass; [1]
  Plant response rating, Blackgrass: 3
blackgrass; [2]
  Blackgrass plant response rating: 5
blackgrass; [3]
  Blackgrass plant response rating: 7
blackgrass; [4]
  Blackgrass plant response rating: 8
blackgrass; [5]
  Blackgrass plant response rating: 7
blackgrass; [6]
  Blackgrass plant response rating: 7
blackgrass; [7]
  Blackgrass plant response rating: 9
Surinam grass; [1]
  Plant response rating, B. signalgrass: 3
Surinam grass; [2]
  B. signalgrass plant response rating: 7
Surinam grass; Preemergence, Rate 62 g/ha, scale of 0 to 10 where 0 is no effect and 10 is complete control
  B. signalgrass plant response rating: 5
Surinam grass; [4]
  B. signalgrass plant response rating: 7
Surinam grass; [6]
  B. signalgrass plant response rating: 7
Surinam grass; Rate 500 g/ha, Postemergence, scale 0 to 10, 0 is no effect, 10 is complete control
  B. signalgrass plant response rating: 8
Surinam grass; [7]
  B. signalgrass plant response rating: 7
cocklebur; [1]
  Plant response rating, Cocklebur: 0
cocklebur; [2]
  Cocklebur plant response rating: 0
cocklebur; [3]
  Cocklebur plant response rating: 3
cocklebur; [4]
  Cocklebur plant response rating: 0
cocklebur; [5]
  Cocklebur plant response rating: 0
cocklebur; [8]
  Cocklebur plant response rating: 0
cocklebur; [6]
  Cocklebur plant response rating: 0
cocklebur; [7]
  Cocklebur plant response rating: 0
corn; [1]
  Plant response rating, Corn: 0
corn; [2]
  Corn plant response rating: 0
corn; [3]
  Corn plant response rating: 3
corn; [4]
  Corn plant response rating: 0
corn; [5]
  Corn plant response rating: 0
corn; [8]
  Corn plant response rating: 0
corn; [6]
  Corn plant response rating: 0
corn; [7]
  Corn plant response rating: 2
crabgrass; [1]
  Plant response rating, Crabgrass: 3
crabgrass; [2]
  Crabgrass plant response rating: 5
crabgrass; [3]
  Crabgrass plant response rating: 9
crabgrass; [4]
  Crabgrass plant response rating: 10
crabgrass; [5]
  Crabgrass plant response rating: 9
crabgrass; [8]
  Crabgrass plant response rating: 10
crabgrass; [6]
  Crabgrass plant response rating: 7
crabgrass; [7]
  Crabgrass plant response rating: 10
Giant foxtail; [1]
  Plant response rating, Giant foxtail: 5
Giant foxtail; [2]
  Giant foxtail plant response rating: 8
Giant foxtail; [3]
  Giant foxtail plant response rating: 9
Giant foxtail; [4]
  Giant foxtail plant response rating: 10
Giant foxtail; [5]
  Giant foxtail plant response rating: 9
Giant foxtail; [8]
  Giant foxtail plant response rating: 10
Giant foxtail; [6]
  Giant foxtail plant response rating: 9
Giant foxtail; [7]
  Giant foxtail plant response rating: 10
morningglory; [1]
  Plant response rating, Morningglory: 5
morningglory; [2]
  Morningglory plant response rating: 6
morningglory; [3]
  Morningglory plant response rating: 8
morningglory; [5]
  Morningglory plant response rating: 0
morningglory; [8]
  Morningglory plant response rating: 0
morningglory; [6]
  Morningglory plant response rating: 6
morningglory; [7]
  Morningglory plant response rating: 0
pigweed; [1]
  Plant response rating, Redroot pigweed: 6
pigweed; [2]
  Redroot pigweed plant response rating: 7
pigweed; [3]
  Redroot pigweed plant response rating: 8
pigweed; [5]
  Redroot pigweed plant response rating: 8
pigweed; [7]
  Redroot pigweed plant response rating: 10
rape; [1]
  Plant response rating, Rape: 0
rape; [2]
  Rape plant response rating: 0
rape; [3]
  Rape plant response rating: 1
rape; [5]
  Rape plant response rating: 2
rape; [6]
  Rape plant response rating: 0
rape; [7]
  Rape plant response rating: 8
soybean; [1]
  Plant response rating, Soybean: 2
soybean; [3]
  Soybean plant response rating: 5
soybean; [5]
  Soybean plant response rating: 0
soybean; [8]
  Soybean plant response rating: 0
soybean; [6]
  Soybean plant response rating: 5
soybean; [7]
  Soybean plant response rating: 0
Sugar beet; [1]
  Plant response rating, Sugarbeets: 0
Sugar beet; [3]
  Sugarbeets plant response rating: 4
Sugar beet; [5]
  Sugarbeets plant response rating: 6
Sugar beet; [6]
  Sugarbeets plant response rating: 0
Sugar beet; [7]
  Sugarbeets plant response rating: 9
velvetleaf; [1]
  Plant response rating, Velvetleaf: 6
velvetleaf; [3]
  Velvetleaf plant response rating: 7
velvetleaf; [5]
  Velvetleaf plant response rating: 0
velvetleaf; [8]
  Velvetleaf plant response rating: 4
velvetleaf; [6]
  Velvetleaf plant response rating: 7
velvetleaf; [7]
  Velvetleaf plant response rating: 7
wheat; [1]
  Plant response rating, Wheat: 0
wheat; [3]
  Wheat plant response rating: 5
wheat; [5]
  Wheat plant response rating: 3
wheat; [6]
  Wheat plant response rating: 3
wheat; [7]
  Wheat plant response rating: 8
Wild oat; [1]
  Plant response rating, Wild oats: 0
Wild oat; [3]
  Wild oats plant response rating: 2
Wild oat; [5]
  Wild oats plant response rating: 4
Wild oat; [6]
  Wild oats plant response rating: 0
Wild oat; [7]
  Wild oats plant response rating: 9
Purple nutsedge; [1]
  Plant response rating, Nutsedge: 0
Purple nutsedge; [2]
  Nutsedge plant response rating: 0
Purple nutsedge; [3]
  Nutsedge plant response rating: 3
Purple nutsedge; [5]
  Nutsedge plant response rating: 0
Purple nutsedge; [6]
  Nutsedge plant response rating: 0
Purple nutsedge; [7]
  Nutsedge plant response rating: 0
rice; [9]
  Rice plant response rating: 0
rice; [10]
  Rice plant response rating: 0
rice; [11]
  Rice plant response rating: 0
rice; [12]
  Rice plant response rating: 0
Smallflower flatsedge; [9]
  S. Flatsedge plant response rating: 0
Smallflower flatsedge; [10]
  S. Flatsedge plant response rating: 0
Smallflower flatsedge; [11]
  S. Flatsedge plant response rating: 0
Smallflower flatsedge; [12]
  S. Flatsedge plant response rating: 0
Duck salad; [9]
  Ducksalad plant response rating: 0
Duck salad; [10]
  Ducksalad plant response rating: 0
Duck salad; [11]
  Ducksalad plant response rating: 0
Duck salad; [12]
  Ducksalad plant response rating: 0
bamyardgrass; [9]
  Barnyardgrass plant response rating: 0
bamyardgrass; [10]
  Barnyardgrass plant response rating: 0
bamyardgrass; [11]
  Barnyardgrass plant response rating: 0
bamyardgrass; [12]
  Barnyardgrass plant response rating: 0
